Where “and” joins values, the source holds several entries; their conditions need not be identical. Identical values can stand only once. Like-named read-outs stand apart in the source and are kept apart here.
Assays:
[1] = biological target: T1, Human recombinant PDE2A (hPDE2A) (Homo sapiens, UniProt O00408); assay: In vitro assay PDE2A (SPA, 3H-cGMP hydrolysis); type: biochemical; details: for Emax: read-out: hPDE2A Emax
T1 construct: His tag (inferred from metal chelate purification); made in house; host or cells: Sf9 insect cells (baculovirus)

[2] = biological target: T2, Human recombinant PDE3A (hPDE3A) (Homo sapiens, UniProt Q14432); assay: In vitro assay PDE3A (SPA, 3H-cAMP hydrolysis); type: biochemical; details: for IC50: hPDE3B pIC50, read-out: pIC50 (converted); for Emax: read-out: hPDE3B Emax, read-out: Emax;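 as to all read-outs here: the method names PDE3A and the table heading PDE3B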
T2 construct: purchased Scottish Biomedical; host or cells: Sf9 insect cells
Method in brief: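 Human PDE3A, cloned from brain, as partially purified Sf9 lysate. Substrate 0.4 μM cAMP plus [3H]-cAMP (2.4 μCi/ml final) in 50 mM Tris pH 7.8, 8.3 mM MgCl2, 1.7 mM EGTA, 60 min at room temperature, 1% DMSO final. Hydrolysis read by SPA scintillation counting against no-enzyme blanks and DMSO controls.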

[3] = biological target: T3, Human recombinant PDE10A (hPDE10A) (Homo sapiens, UniProt Q9Y233); assay: In vitro assay PDE10A, human clone (SPA, 3H-cAMP hydrolysis); type: biochemical
T3 construct: His tag (inferred from metal chelate purification); made in house; host or cells: Sf9 insect cells (baculovirus)
Method in brief: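 Human recombinant PDE10A was expressed in Sf9 cells via baculovirus and incubated with compound in 50 mM Tris pH 7.8, 8.3 mM MgCl2, 1.7 mM EGTA. Substrate was 60 nM cAMP plus 0.008 μCi 3H-cAMP for 60 min at room temperature, read by SPA scintillation counting. Controls used 1% DMSO, and blanks omitted enzyme.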

PDE2A = biological target: T4, PDE2A (Rattus norvegicus, UniProt Q01062); assay: PDE2 occupancy by test compounds, ex-vivo autoradiography with [3H]B-17a; type: in vivo, Male Wistar rats; details: for receptor occupancy at 10 mg/kg: percentage receptor occupancy, ex-vivo autoradiography, striatum; for ED50: read-out: PDE Occupancy ED50
T4 construct: Twenty μm-thick striatal sections were cut; from tissue; host or cells: rat brain, striatal sections
T4 sequence (Q01062 1-928): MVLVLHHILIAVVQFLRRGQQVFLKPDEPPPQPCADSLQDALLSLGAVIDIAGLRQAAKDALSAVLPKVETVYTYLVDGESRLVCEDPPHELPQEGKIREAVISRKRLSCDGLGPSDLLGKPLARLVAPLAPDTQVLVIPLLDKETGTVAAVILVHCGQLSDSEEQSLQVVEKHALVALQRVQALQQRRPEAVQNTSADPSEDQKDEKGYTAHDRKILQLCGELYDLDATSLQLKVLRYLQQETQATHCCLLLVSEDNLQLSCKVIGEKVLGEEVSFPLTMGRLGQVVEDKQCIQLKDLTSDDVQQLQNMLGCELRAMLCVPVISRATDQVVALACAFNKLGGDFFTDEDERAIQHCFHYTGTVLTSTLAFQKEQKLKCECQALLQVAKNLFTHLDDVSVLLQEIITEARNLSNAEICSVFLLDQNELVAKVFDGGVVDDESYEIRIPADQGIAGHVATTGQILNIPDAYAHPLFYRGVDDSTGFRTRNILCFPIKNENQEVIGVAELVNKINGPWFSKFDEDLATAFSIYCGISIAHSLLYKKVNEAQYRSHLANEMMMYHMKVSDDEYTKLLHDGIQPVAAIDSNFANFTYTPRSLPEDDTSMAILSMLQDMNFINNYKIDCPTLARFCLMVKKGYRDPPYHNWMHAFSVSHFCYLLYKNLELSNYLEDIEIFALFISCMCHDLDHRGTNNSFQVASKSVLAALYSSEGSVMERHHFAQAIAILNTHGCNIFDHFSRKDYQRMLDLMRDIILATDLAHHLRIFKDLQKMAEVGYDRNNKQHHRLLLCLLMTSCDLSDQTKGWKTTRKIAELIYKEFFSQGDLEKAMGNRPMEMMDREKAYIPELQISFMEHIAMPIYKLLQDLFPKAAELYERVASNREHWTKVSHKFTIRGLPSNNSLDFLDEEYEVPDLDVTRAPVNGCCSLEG

[4] = human recombinant PDE2A, 10 μM cGMP substrate, read-out: hPDE2A pIC50 (converted)
[5] = read-out: hPDE2A pIC50 (converted)
[6] = human clone (h), default, read-out: hPDE10A2 Emax
[7] = human clone (h), default, read-out: hPDE10A2 pIC50 (converted)
[8] = human clone by default (no (r) mark), read-out: hPDE10A2 or rPDE10A2 Emax
[9] = human clone by default (no (r) mark), read-out: hPDE10A2 or rPDE10A2 pIC50 (converted)
[10] = route PO (oral), drug dose producing 50% receptor occupancy

T2 sequence (Q14432 whole entry): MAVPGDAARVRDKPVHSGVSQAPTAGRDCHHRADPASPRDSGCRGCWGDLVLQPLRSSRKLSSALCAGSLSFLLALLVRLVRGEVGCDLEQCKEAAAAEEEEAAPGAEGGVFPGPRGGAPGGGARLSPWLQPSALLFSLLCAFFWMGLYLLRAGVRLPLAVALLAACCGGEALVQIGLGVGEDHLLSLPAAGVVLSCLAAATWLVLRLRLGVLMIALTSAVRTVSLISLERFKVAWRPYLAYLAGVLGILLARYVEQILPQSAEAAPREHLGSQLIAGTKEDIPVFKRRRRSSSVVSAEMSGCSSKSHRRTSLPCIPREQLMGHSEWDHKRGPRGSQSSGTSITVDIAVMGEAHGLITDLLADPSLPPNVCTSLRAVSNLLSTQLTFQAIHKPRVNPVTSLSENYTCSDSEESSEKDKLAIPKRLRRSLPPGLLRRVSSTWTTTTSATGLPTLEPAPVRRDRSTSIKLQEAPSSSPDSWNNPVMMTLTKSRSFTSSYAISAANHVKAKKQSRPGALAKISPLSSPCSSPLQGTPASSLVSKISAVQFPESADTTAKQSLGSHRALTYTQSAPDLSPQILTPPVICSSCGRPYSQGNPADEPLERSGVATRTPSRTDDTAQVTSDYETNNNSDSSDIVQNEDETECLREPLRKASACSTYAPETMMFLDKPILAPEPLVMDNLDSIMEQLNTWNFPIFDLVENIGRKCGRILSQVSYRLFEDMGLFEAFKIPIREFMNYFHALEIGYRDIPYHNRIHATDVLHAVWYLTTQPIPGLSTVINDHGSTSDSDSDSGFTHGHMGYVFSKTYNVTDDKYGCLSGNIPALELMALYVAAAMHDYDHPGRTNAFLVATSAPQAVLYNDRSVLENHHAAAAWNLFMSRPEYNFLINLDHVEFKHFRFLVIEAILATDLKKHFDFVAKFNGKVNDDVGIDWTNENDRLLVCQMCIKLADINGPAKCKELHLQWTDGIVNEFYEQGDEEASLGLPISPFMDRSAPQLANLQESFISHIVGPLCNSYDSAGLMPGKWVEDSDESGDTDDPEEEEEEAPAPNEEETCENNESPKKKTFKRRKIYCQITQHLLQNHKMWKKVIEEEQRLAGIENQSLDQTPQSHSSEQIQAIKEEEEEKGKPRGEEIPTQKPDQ
T3 sequence (Q9Y233 267-1055): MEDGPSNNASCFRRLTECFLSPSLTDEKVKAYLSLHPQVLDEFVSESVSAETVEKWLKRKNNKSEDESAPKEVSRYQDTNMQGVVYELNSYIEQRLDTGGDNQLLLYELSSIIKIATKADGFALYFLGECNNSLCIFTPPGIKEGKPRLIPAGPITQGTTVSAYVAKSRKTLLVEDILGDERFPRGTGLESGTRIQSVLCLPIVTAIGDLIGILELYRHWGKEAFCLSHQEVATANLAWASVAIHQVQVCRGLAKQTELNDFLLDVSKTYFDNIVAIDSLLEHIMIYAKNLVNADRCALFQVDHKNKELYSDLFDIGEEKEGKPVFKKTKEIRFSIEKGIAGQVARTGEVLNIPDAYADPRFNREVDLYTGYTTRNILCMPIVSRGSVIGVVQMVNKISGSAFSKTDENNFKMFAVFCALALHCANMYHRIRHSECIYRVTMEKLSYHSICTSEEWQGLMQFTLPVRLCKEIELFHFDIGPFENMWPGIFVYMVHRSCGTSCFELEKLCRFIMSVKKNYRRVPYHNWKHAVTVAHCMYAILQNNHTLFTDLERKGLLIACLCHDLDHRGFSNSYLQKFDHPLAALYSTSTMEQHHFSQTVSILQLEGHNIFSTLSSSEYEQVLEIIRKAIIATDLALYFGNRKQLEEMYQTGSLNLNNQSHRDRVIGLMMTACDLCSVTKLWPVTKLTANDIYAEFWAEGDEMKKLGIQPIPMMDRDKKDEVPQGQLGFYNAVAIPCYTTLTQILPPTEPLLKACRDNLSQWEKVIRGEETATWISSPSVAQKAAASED
T1 sequence (O00408 whole entry): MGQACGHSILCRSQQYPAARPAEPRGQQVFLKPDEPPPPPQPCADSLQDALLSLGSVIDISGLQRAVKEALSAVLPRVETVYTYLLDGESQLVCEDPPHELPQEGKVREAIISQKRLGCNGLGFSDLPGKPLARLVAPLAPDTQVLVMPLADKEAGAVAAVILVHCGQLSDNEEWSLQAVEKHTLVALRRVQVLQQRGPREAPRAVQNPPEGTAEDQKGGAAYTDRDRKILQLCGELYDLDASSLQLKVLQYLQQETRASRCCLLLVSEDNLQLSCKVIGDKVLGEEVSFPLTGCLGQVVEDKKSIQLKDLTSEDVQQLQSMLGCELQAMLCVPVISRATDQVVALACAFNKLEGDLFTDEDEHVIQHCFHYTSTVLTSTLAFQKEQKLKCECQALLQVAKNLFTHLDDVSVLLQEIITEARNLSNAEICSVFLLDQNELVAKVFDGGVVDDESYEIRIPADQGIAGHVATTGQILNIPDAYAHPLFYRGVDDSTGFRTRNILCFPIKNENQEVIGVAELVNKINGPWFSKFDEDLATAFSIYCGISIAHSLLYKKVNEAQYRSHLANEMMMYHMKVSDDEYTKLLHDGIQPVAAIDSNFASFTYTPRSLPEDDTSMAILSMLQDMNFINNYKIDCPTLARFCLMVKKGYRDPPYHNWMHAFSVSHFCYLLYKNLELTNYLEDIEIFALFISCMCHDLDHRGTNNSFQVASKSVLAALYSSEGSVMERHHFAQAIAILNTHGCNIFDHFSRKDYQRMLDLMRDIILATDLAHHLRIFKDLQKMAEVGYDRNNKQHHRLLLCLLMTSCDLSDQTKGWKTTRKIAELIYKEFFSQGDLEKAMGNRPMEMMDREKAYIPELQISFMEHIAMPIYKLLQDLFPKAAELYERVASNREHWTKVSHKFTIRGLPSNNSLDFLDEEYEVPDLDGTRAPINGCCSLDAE

| SMILES | IC50 [1, 4] | Emax ([1]; human recombinant PDE2A) | Emax [1] | IC50 [1, 5] | IC50 [2] | Emax [2] | hPDE10A2 Emax ([3]; human clone (h), default) | Emax [3, 6] | IC50 [3, 7] | receptor occupancy at 10 mg/kg (PDE2A; route SC (subcutaneous)) | ED50 (PDE2A; po) | melting point | receptor occupancy at 10 mg/kg (PDE2A; po, route PO (oral)) | Emax [3, 8] | IC50 [3, 9] | ED50 (PDE2A; [10]) | hPDE3B Emax [2] | IC50 ([1]; hPDE2A pIC50) | IC50 ([1]; hPDE2A pIC50, human recombinant PDE2A, 10 μM cGMP substrate) | receptor occupancy at 10 mg/kg (PDE2A; sc, route SC (subcutaneous)) |
| --- | --- | --- | --- | --- | --- | --- | --- | --- | --- | --- | --- | --- | --- | --- | --- | --- | --- | --- | --- | --- |
| O=C(c1ccc2ncsc2c1)N1[C@H]2CC[C@H](c3cc(C(F)F)nc4ncnn34)[C@@H]1CC2 [Compound 25a] | 0.708 nM | 100% | 100% | 1.07 nM | 8710 nM | 54% | 96 | 94% | 589 nM and 389 nM | 66% | 4 mg/kg | 240.33 °C |  |  |  |  |  |  |  |  |
| Cc1csc(C(=O)N2CC[C@@H](C)[C@H](c3cc(C(F)F)nc4ncnn34)C2)c1 [Compound 126] | 2.09 nM | 101% | 101% | 2.09 nM | 6030 nM | 65% |  | 97% | 112 nM |  |  | 114.32 °C | 31% |  |  |  |  |  |  |  |
| COc1nc(C)cc(C(=O)N2CC[C@@H](C)[C@H](c3cc(C(F)F)nc4ncnn34)C2)c1F [Compound 282] |  |  | 100% | 2.88 nM | 1700 nM | 88% |  |  |  |  |  | 193.33 °C | 47% | 98% | 275 nM | 11.8 mg/kg |  |  |  |  |
| C[C@@H]1CCN(C(=O)c2ccc3ncc(F)cc3c2)C[C@H]1c1cc(C(F)F)nc2ncnn12 [Compound 332] |  |  | 99% | 4.79 nM | 1200 nM | 90% |  |  |  |  |  | 183.18 °C | 8% | 98% | 30.9 nM |  |  |  |  |  |
| Cc1cc([C@@H]2CN(C(=O)c3cc(Cl)ncc3C(F)(F)F)CC[C@H]2C)n2ncnc2n1 [Compound 270] |  |  | 100% | 2.34 nM | > 10000 nM | 29% |  | 96% | 269 nM |  |  | 213.25 °C | 6% | 96% | 269 nM |  |  |  |  |  |
| COc1cc(C(=O)N2CC[C@@H](C)[C@H](c3cc(C)nc4ncnn34)C2)c(F)cn1 [Compound 225] |  |  | 99% | 11.5 nM | 1780 nM | 83% |  |  |  |  |  | 178.64 °C | -6% | 98% | 93.3 nM |  |  |  |  |  |
| Cc1cc(C(=O)N2[C@H]3CC[C@H](c4cc(C(F)F)nc5ncnn45)[C@@H]2CC3)cc(C)n1 [Compound 29] | 1.51 nM | 101% | 101% | 1.51 nM | > 10000 nM |  |  | 90% | 692 nM | 31% |  | 176.52 °C |  |  |  |  | 18 |  |  |  |
| COc1ccc(C(=O)N2CC[C@@H](C)[C@H](c3cc(C(F)F)nc4ncnn34)C2)cc1OC(F)F [Compound 133] | 2.95 nM | 100% | 100% | 2.95 nM | 1620 nM | 85% |  | 98% | 135 nM |  |  | 152.33 °C | -19% |  |  |  |  |  |  |  |
| C[C@@H]1CCN(C(=O)c2cc(Cl)cc(Cl)c2)C[C@H]1c1cc(C(F)F)nc2ncnn12 [Compound 334] |  |  | 100% |  | 2340 nM | 84% |  |  |  |  |  | 239.87 °C | 17% | 98% | 100 nM |  |  | 2.45 nM |  |  |
| Cc1cc(C(=O)N2CC[C@@H](C)[C@H](c3cc(C(F)F)nc4ncnn34)C2)cc(F)c1F [Compound 189] |  |  | 100% |  | 2750 nM | 80% |  | 96% | 186 nM |  |  | 152.03 °C | 9% |  |  |  |  | 5.13 nM | 5.13 nM |  |
| Cc1cc(C(=O)N2CC[C@@H](C)[C@H](c3cc(C(F)F)nc4ncnn34)C2)cc(OC(F)F)n1 [Compound 281] |  |  | 100% | 1.66 nM | 2240 nM | 87% |  |  |  |  |  | 114.59 °C | 57% | 99% | 110 nM | 4.2 mg/kg |  |  |  |  |
| C[C@@H]1CCN(C(=O)c2ccnc(C3CC3)c2F)C[C@H]1c1cc(C(F)F)nc2ncnn12 [Compound 120] | 1.74 nM | 100% | 100% | 1.74 nM | 708 nM | 95% |  | 96% | 200 nM |  |  | 173.99 °C | 12% |  |  |  |  |  |  |  |
| C[C@@H]1CCN(C(=O)c2ccc3ncsc3c2)C[C@H]1c1cc(C(F)F)nc2ncnn12 [Compound 228] | 0.224 nM | 100% | 100% | 0.224 nM | 1200 nM | 91% |  | 100% | 17 nM |  |  | 178.21 °C |  | 100% | 17 nM | 1.5 mg/kg |  |  |  | 92% |
